Data reported in patent US20140378408A1, “NUCLEOSIDE 5'-PHOSPHOROTHIOATE ANALOGUES AND USES THEREOF” (BAR-ILAN UNIVERSITY, an Israeli University, priority 2012, published 2014).
Where two headings read alike, the source gives them in different places.

How the values were obtained:
[1] = literature; cited from earlier work
[2] = ESR OH radical assay, Fe^2+/H2O2 Fenton system; conditions: N/A = minimal radical production exceeds 10%
[3] = ESR OH radical assay, Cu^+/H2O2 Fenton system; conditions: N/A = minimal radical production exceeds 10%
[4] = literature; cited from earlier work; remark: listed apart in the source
PC12 cells [5] = assay: Stability of nucleotides in PC12 cells
PC12 cells [6] = assay: Inhibition of Fe(II)-induced ROS formation in PC12 cells (DCFH-DA); assay type: cell-based; conditions: PC12 cells, FeSO4 0.16 μM, 1 h, DCFH-DA; read-out: IC50 inhibition of ROS formation
Method: In this study, nucleoside 5′-phosphorothioate analogues were explored as inhibitors of Fe(II)-induced oxidative stress in PC12 cells used as a neuronal model. Reduction of ROS production in PC12 cells by each one of the tested analogues was measured by DCFH-DA, a radical sensitive indicator. After DCFH-DA was removed, the tested analogue was added to the cells at a final concentration of 0.2-200 μM. Oxidation was initiated by the addition of FeSO4 (0.16 μM) to the wells. The plates were incubated for 1 h at 37° C., during which the absorbance was read by a Tecan fluorometer at 485/530 nm.

cortical neurons = assay: Neuroprotection of cultured cortical neurons exposed to FeSO4 or FeSO4/H2O2; assay type: cell-based; conditions: for protection: co-application with FeSO4 3 μM
Method: FIGS. 10A-10B show the neuroprotective effect of ATP-γ-S and GDP-β-S (0.2-200 μM, t=24 h) as evaluated by MTT production in cortical neurons exposed for 24 h to either FeSO4 at final concentration of 3 μM (10A); or both FeSO4 (3 μM) and H2O2 (100 μM) (10B). The results shown are the mean±SEM of three independent experiments in quadruplicate.
Cultured cortical neurons in 96-well plates were treated with different concentrations of FeSO4, or hydrogen peroxide and FeSO4, for 24 h at 37° C. Following exposure to various insults, the cells were treated with ATP-γ-S and GDP-β-S as described. Cells were subsequently incubated for a further 18-24 h as indicated before being assessed for viability measures. Neurons were treated with ATP-γ-S and GDP-β-S at three concentrations ([…]) simultaneously with 1.5, 3 or 6 μM FeSO4 for 24 h. Following 24 h incubation in the presence of both FeSO4 and ATP-γ-S and GDP-β-S cell viability measures were assessed by XTT assay. All experiments were performed in triplicate.
FeSO4 induced a concentration-dependent decrease in cell viability as assessed by XTT assay and morphological assessment following 24 h of exposure (FIG. 9). The neuroprotective effect of ATP-γ-S and GDP-β-S (due to iron chelation) was evaluated in cortical neurons exposed to FeSO4 for 24 h (FIG. 10).

Aβ28-Cu^+ complex = target: T1, Aβ28-Cu^+ complex (Homo sapiens, UniProt P05067); assay: Titration of Aβ28-Cu^+ complex by chelators monitored by 1H-NMR; conditions: 6 eq chelator, 0.8 mM Aβ28-Cu^+, pD 7
T1 construct: we first studied Aβ28, as a more soluble fragment of Aβ40; purchased Sigma-Aldrich
T1 sequence (P05067 672-699 limits assumed, one chain of several): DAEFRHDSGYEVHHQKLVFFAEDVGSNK

Aβ40-Cu^2+ aggregates = target: T2, Aβ40-Cu^2+ aggregates (Homo sapiens, UniProt P05067); assay: DLS, size reduction of Aβ40-Cu^2+ aggregates; conditions: aggregate alone 1836 nm; 25 μM Aβ40-Cu^2+, pH 6.6
T2 construct: purchased GL-Biochem (Shanghai)
T2 sequence (P05067 672-711 limits assumed): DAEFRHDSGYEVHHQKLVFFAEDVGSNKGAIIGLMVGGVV
Method: PBS buffer, Aβ40, chelator, Zn(NO3)2, and Cu(NO3)2 solutions were filtered through a […] PVDF syringe filter. 496 μM Aβ40 solution in 10 mM PBS (pH 7.4) and 2 mM Zn(NO3)2 solution were mixed to obtain 200 μM Aβ40-Zn^2+ (1:1 ratio) of a cloudy solution. Similarly, 2 mM Cu(NO3)2 solution was added to 496 μM Aβ40 in 10 mM PBS (pH 6.6). Aβ40-Zn^2+/Cu^2+ (10 μl) solution was transferred to Eppendorf tubes containing 10 mM PBS buffer (64 or 67 μl) followed by the addition of 3 and 6 eq of 2 mM nucleotide (6 or 3 μl) solution and incubation for 45 min at RT. The resulting mixture was incubated for another 30 min at RT and DLS data were then collected in a 70 μl disposable cuvette. The final sample concentrations were 25 μM Aβ40, 25 μM Zn^2+ or Cu^2+, and 150 or 75 μM nucleotide.
Monomeric Aβ40 was incubated with either Cu^2+ or Zn^2+ for 45 min to form a 1:1 peptide metal-ion complex. […] For the Aβ40-Zn^2+ particles the instrument readings indicated a different size distribution. […] We evaluated the capacity of the phosphorothioate analogues to dissolve Aβ40-Cu^2+ or Zn^2+ aggregates, as compared to EDTA and clioquinol known for their ability to dissolve Aβ-M^2+ aggregates (Ritchie et al., 2003; Huang et al., 1997). The reduction of dH of Aβ40-Cu^2+ aggregates by EDTA, clioquinol, or tested compounds was compared to the dH of Aβ-Cu^2+ aggregate itself (FIG. 5A). In addition, the efficacy of the chelators ATP-γ-S, ADP-β-S, APCPP-γ-S and GDP-β-S to resolubilize Aβ40-Cu^2+ and Aβ40-Zn^2+ is described in FIGS. 5B and 5C relative to EDTA and clioquinol. EDTA efficiency in reducing Aβ particle size is considered as 100%.

Aβ40-Zn^2+ aggregates = target: T3, Aβ40-Zn^2+ aggregates (Homo sapiens, UniProt P05067); assay: DLS, re-solubilization of Aβ40-Zn^2+ aggregates; conditions: EDTA = 100%, clioquinol value refers to FIG. 5B, 5C
T3 construct: Monomeric Aβ40 was incubated with either Cu^2+ or Zn^2+; purchased GL-Biochem (Shanghai)
T3 sequence (P05067 672-711 limits assumed): as above

[7] = OH radical inhibition, Fe^2+/H2O2 system, earlier work; cited from earlier work
primary neurons = assay: Protection of primary neuron culture against Aβ42 insult (trypan blue count); assay type: cell-based
Method: Primary neuron cells were cultured in 96 wells plate (95×10^4 per well). After 24 h the cells were treated with 50 μM Aβ42 and various concentrations of APCPP-γ-S (0.04-25 μM) for 48 h. Cell viability was measured by dyeing the cells with trypan blue and counts of the vital cells. The results shown are the mean±S.D of three independent experiments in triplicate (*P<0.05, vs. Aβ42 treatment).
Primary neurons cells were cultured in 96 wells plate (95×10^4 per well). […] Cell viability was measured by dyeing the cells with trypan blue and counts the vital cells. The results shown are the mean±S.D of three independent experiments in triplicate (*P<0.05, **P<0.01 vs. Aβ42 treatment).
In this study, the neuroprotective activity of APCPP-γ-S in neuronal cells exposed to toxic Aβ42 was evaluated. At first we measured the number of the viable neuronal cells after treatment with Aβ42 (5-50 μM) (FIG. 11). At 50 μM Aβ42, 50% of the neuronal culture remained vital. Next, we measured the protective effect of APCPP-γ-S: primary neurons were treated with APCPP-γ-S (0.04-25 μM) and 50 μM Aβ42 for 48 h.

[8] = Table 2, neuroprotection of primary neurons exposed to FeSO4, read-out: IC50
[9] = co-application of FeSO4 3 μM and H2O2 100 μM, read-out: IC50 neuroprotection
[10] = cortical neurons, FeSO4 3 μM, 24 h, read-out: IC50 neuroprotection

## O=C(O)CN(CCN(CC(=O)O)CC(=O)O)CC(=O)O [EDTA, ethylenediamine tetraacetic acid]
[1]
  log K of Zn^2+ complex: 16.5
[2]
  IC90: 98 ± 1 µM
[3]
  IC90: 110 ± 7 µM
[4]
  log K of Cu^2+ complex: 18.8

## Nc1nc2c(ncn2[C@@H]2O[C@H](COP(=O)(O)OP(O)(O)=S)[C@@H](O)[C@H]2O)c(=O)[nH]1 [GDP-β-S, guanosine 5′-[β-thio]diphosphate]
PC12 cells [5]
  fold more stable in PC12 cells than parent nucleotide (GDP, ADP): 4.5 fold
PC12 cells [6]
  IC50: 10000 nM
Cortical neurons; [8]
  IC50: 80 ± 3 nM
Cortical neurons; [9]
  IC50: 4000 nM
Cortical neurons; 24 h
  protection: 130%
Cortical neurons; [10]
  IC50: 8 nM
Aβ28-Cu^+ complex
  effect on Aβ28-Cu^+ 1H-NMR spectrum: partial recovery of Aβ28 aromatic signals

## Oc1c(I)cc(Cl)c2cccnc12 [Clioquinol, 5-chloro-7-iodoquinolin-8-ol]
Aβ40-Cu^2+ aggregates
  dH (particle size) of Aβ40-Cu^2+ after chelator: 127 nm
Aβ40-Zn^2+ aggregates
  efficacy in resolubilizing aggregates relative to EDTA: ca. 75 % of EDTA efficacy
Aβ28-Cu^+ complex
  effect on Aβ28-Cu^+ 1H-NMR spectrum: slightly sharpened, yet, no signal pattern emerged

## Nc1ncnc2c1ncn2[C@@H]1O[C@H](COP(=O)(O)OP(=O)(O)OP(O)(O)=S)[C@@H](O)[C@H]1O [ATP-γ-S, Adenosine 5′-[γ-thio]-triphosphate]
Aβ40-Cu^2+ aggregates
  dH (particle size) of Aβ40-Cu^2+ after chelator: 110 nm
[7]
  times more active than ATP: 100
  times more active than Trolox: 20
PC12 cells [6]
  IC50: 180 nM
Cortical neurons; [8]
  IC50: 10 ± 8 nM
Cortical neurons; [9]
  IC50: 1000 nM
Cortical neurons; 24 h
  protection: 100%
Cortical neurons; [10]
  IC50: 10 nM
Cortical neurons; primary cortical neuronal cells, read-out: IC50 protection from damage caused by FeSO4
  IC50: 10 nM
Primary neurons; 50 μM Aβ42, 48 h, read-out: concentration that maintained 50% of neuronal cells
  IC50: 800 nM
Primary neurons; primary neurons, read-out: IC50 protection from Aβ42 insult
  IC50: 800 nM
